Source: patent publication US20240116946A1 (Gilead Sciences, Inc., priority 2022, published 2024)
Read-outs that look alike come from different tables or passages of the source.

Experiments:
[1] = target: recombinant SARS-CoV-2 Main protease (Mpro) (Severe acute respiratory syndrome coronavirus 2 (2019-nCoV) (SARS-CoV-2), UniProt P0DTD1); assay: Cov Mpro Biochemical IC50 Assay
SARS-CoV-2-NLuc = assay: microbe, parasite or virus in culture; assay type: cell-based, SARS Coronavirus 2
[2] = recombinant SARS-CoV-2 Mpro, fluorogenic peptide substrate, read-out: MPro IC50
[3] = Severe acute respiratory syndrome coronavirus, 48 h, read-out: MPro EC50
[4] = recombinant SARS-CoV-2 Mpro 7.5 nM, fluorogenic peptide substrate 40 μM, read-out: MPro IC50
[5] = Severe acute respiratory syndrome coronavirus, 48 h; read-out: MPro EC50

Structure (SMILES)	IC50 [1, 2] [µM]	EC50 (SARS-CoV-2-NLuc; [3]) [µM]	IC50 [1, 4] [µM]	further results
COc1cccc(F)c1-c1ccc2c(=O)n(-c3cncc4ccccc34)c(=O)[nH]c2c1 [Example 61]	0.914	0.648		
Cc1nn(C2CCNCC2)cc1-c1cccc(Cl)c1-c1ccc2c(=O)n(-c3cncc4ccccc34)c(=O)[nH]c2c1 [Example 472, 7-[2-chloro-6-[3-methyl-1-(4-piperidyl)pyrazol-4-yl]phenyl]-3-(4-isoquinolyl)-1H-quinazoline-2,4-dione]		0.188	0.00511	
Cc1nn(C)cc1-c1cc2[nH]c(=O)n(-c3cncc(C4CC4)c3)c(=O)c2s1 [Example 366]	36.8			EC50 (SARS-CoV-2-NLuc; [5]): 32.2 µM
COCc1ccccc1-c1cc2[nH]c(=O)n(-c3cncc4ccccc34)c(=O)c2s1 [Example 17]	0.0351	0.16		
COc1cc(-c2cc3[nH]c(=O)n(-c4cncc5nc(C)sc45)c(=O)c3s2)c(Cl)cc1F [Example 652]		0.0481	0.0225	
NC(=O)c1ccccc1-c1cc2[nH]c(=O)n(-c3cncc4ccccc34)c(=O)c2cc1F [Example 68]	1.01	43.8		
CC(C)(O)CNc1ccc2cncc(-n3c(=O)[nH]c4cc(-c5ccccc5Cl)sc4c3=O)c2c1 [Example 389]	0.0267	0.131		
COc1cc(-c2cc3c(s2)c(=O)n(-c2cncc(C#N)c2C)c(=O)n3CCC#N)c(Cl)cc1F [Example 868]		0.0261	0.00986	
Cc1ccccc1-c1cc2[nH]c(=O)n(-c3cncc4ccccc34)c(=O)c2s1 [Example 7]	0.0247	0.109		
COc1cccc(C(N)=O)c1-c1ccc2c(=O)n(-c3cncc4ccccc34)c(=O)[nH]c2c1 [Example 72]	8.2	> 50		
N#Cc1cnccc1-c1cc2[nH]c(=O)n(-c3cncc4ccccc34)c(=O)c2s1 [Example 531]		0.518	0.05	
COc1cc(-c2cc3c(s2)c(=O)n(-c2cncc4cnn(C)c24)c(=O)n3CCS(C)(=O)=O)c(Cl)cc1F [Example 1067, 6-(2-chloro-4-fluoro-5-methoxy-phenyl)-3-(1-methylpyrazolo[4,3-c]pyridin-7-yl)-1-(2-methylsulfonylethyl)thieno[3,2-d]pyrimidine-2,4-dione]			0.0272	EC50 (SARS-CoV-2-NLuc; [5]): 0.0578 µM
COc1cc(-c2cc3c(s2)c(=O)n(-c2cncc4cnn(CC(F)F)c24)c(=O)n3CCC#N)c(Cl)cc1F [Example 911]		0.0118	0.0132	
COc1cc(-c2cc3c(s2)c(=O)n(-c2cncc4ncn(C)c24)c(=O)n3CCC#N)c(C#N)cc1F [Example 845]		0.388	0.01	
Cn1cnc2cncc(-n3c(=O)c4sc(-c5ccccc5C#N)cc4n(CCC#N)c3=O)c21 [Example 844]			0.0656	EC50 (SARS-CoV-2-NLuc; [5]): > 1 µM
COc1cc2c(=O)n(-c3cncc4ccccc34)c(=O)[nH]c2cc1-c1ccccc1Cl [Example 83]	0.109	0.122		
COc1cnc(C#N)c(-c2cc3c(s2)c(=O)n(-c2cncc4cnn(C)c24)c(=O)n3CCC#N)c1 [Example 777]		0.253	0.0246	
COc1cc(-c2cc3c(s2)c(=O)n(-c2cncc4c(F)cccc24)c(=O)n3CCC#N)c(Cl)cc1F [Example 950]		0.0118	0.0045	
COc1cc(-c2cc3c(s2)c(=O)n(-c2cncc(C)c2Cl)c(=O)n3CCC#N)c(Cl)cc1F [Example 944]		0.00822	0.00667	
COc1ccc(Cl)c(-c2cc3[nH]c(=O)n(-c4cncc5ccccc45)c(=O)c3s2)c1 [Example 174, 6-(2-chloro-5-methoxyphenyl)-3-(isoquinolin-4-yl)thieno[3,2-d]pyrimidine-2,4(1H,3H)-dione]	0.00699	0.0307		
COc1ccc(Cl)c(-c2cc3[nH]c(=O)n(-c4cncc5cccnc45)c(=O)c3s2)c1 [Example 456, 6-(2-chloro-5-methoxyphenyl)-3-(1,6-naphthyridin-8-yl)thieno[3,2-d]pyrimidine-2,4(1H,3H)-dione]		0.00679	0.00359	
O=c1[nH]c2cc(-c3ccccc3OCc3ccccc3)ccc2c(=O)n1-c1cncc2ccccc12 [Example 57]	5.45	1.52		
O=c1[nH]c2cc(-c3c(Cl)cccc3C3=CCOCC3)sc2c(=O)n1-c1cncc2ccccc12 [Example 522]		0.0051	0.00984	
N#CCCn1c(=O)n(-c2cnccn2)c(=O)c2sc(-c3ccccc3C#N)cc21 [Example 830]			0.35	EC50 (SARS-CoV-2-NLuc; [5]): > 1 µM
COC1CCN(c2ccc3cncc(-n4c(=O)[nH]c5cc(-c6ccccc6Cl)sc5c4=O)c3c2)CC1 [Example 401]		0.0106	0.00384	

Structure (SMILES)	IC50 [1, 2] [µM]	EC50 (SARS-CoV-2-NLuc; [3]) [µM]	IC50 [1, 4] [µM]	further results
COc1ccc(C#N)c(-c2cc3[nH]c(=O)n(-c4cncc5ccc(N6CCn7c(nnc7C(F)(F)F)C6)cc45)c(=O)c3s2)c1 [Example 602]		0.359	0.00577	
COc1ccc(F)c(-c2ccc3c(=O)n(-c4cncc5ccccc45)c(=O)[nH]c3c2)c1 [Example 254]	0.107	0.277		
COc1cc(-c2cc3c(s2)c(=O)n(-c2cncc4nn(C)c(C)c24)c(=O)n3CCC#N)c(C#N)cc1F [Example 895]		0.218	0.00843	
N#CCCn1c(=O)n(-c2cncc3ccccc23)c(=O)c2sc(-c3cc(F)ccc3Cl)cc21 [Example 831]		0.00719	0.00853	
COc1ccc(Cl)c(-c2cc3[nH]c(=O)n(-c4cncc5ccc(N6CCS(=O)(=O)CC6)nc45)c(=O)c3s2)c1 [Example 458]		0.188	0.0121	
CCn1cc2cncc(-n3c(=O)[nH]c4cc(-c5cc(OC)c(F)cc5Cl)sc4c3=O)c2n1 [Example 734]		0.0435	0.00517	
COc1cnc(C#N)c(-c2cc3c(s2)c(=O)n(-c2cncc(C)c2)c(=O)n3CCC#N)c1 [Example 887]			0.0104	EC50 (SARS-CoV-2-NLuc; [5]): 0.0654 µM
COCCOCCOc1c(C)cncc1-n1c(=O)[nH]c2cc(-c3ccccc3Cl)sc2c1=O [Example 215]	0.0107	0.0941		
N#CC1(Cn2c(=O)n(-c3cncc4cccnc34)c(=O)c3sc(-c4ccccc4Cl)cc32)CC1 [Example 711]		0.00171	0.00441	
Cn1ncc2c(-n3c(=O)[nH]c4cc(-c5ccccc5Cl)sc4c3=O)cncc21 [Example 491]		0.0643	0.0173	
COc1ccc(Cl)c(-c2cc3[nH]c(=O)n(-c4cncc5ccc(N6CCN(S(C)(=O)=O)CC6)cc45)c(=O)c3s2)c1 [Example 425]			0.00769	EC50 (SARS-CoV-2-NLuc; [5]): 0.03 µM
O=c1[nH]c2cc(-c3cccc4c3CCC4)ccc2c(=O)n1-c1cncc2ccccc12 [Example 171, 7-(2,3-dihydro-1H-inden-4-yl)-3-(isoquinolin-4-yl)quinazoline-2,4(1H,3H)-dione]	3.79	4.2		
COc1ccc(C#N)c(-c2cc3[nH]c(=O)n(-c4cncc5ccccc45)c(=O)c3cc2F)c1 [Example 428, 2-(6-fluoro-3-(isoquinolin-4-yl)-2,4-dioxo-1,2,3,4-tetrahydroquinazolin-7-yl)-4-methoxybenzonitrile]		0.0179	0.0102	
COc1cc(-c2cc3c(s2)c(=O)n(-c2cncc4ccccc24)c(=O)n3CCC#N)c(Cl)cc1Cl [Example 832]		0.00716	0.00771	
O=c1[nH]c2cc(-c3ccccc3Cl)ccc2c(=O)n1-c1cnccc1N1CCOCC1 [Example 128]	0.51			EC50 (SARS-CoV-2-NLuc; [5]): 1.32 µM
COc1cc(-c2ccc3c(=O)n(-c4cncc5ccccc45)c(=O)[nH]c3c2)c(Cl)cc1Cl [Example 316]	1.07	0.322		
O=c1[nH]c2cc(-c3c(Cl)cccc3-c3cn(C4CC4)nn3)ccc2c(=O)n1-c1cncc2ccccc12 [Example 160, 7-(2-chloro-6-(1-cyclopropyl-1H-1,2,3-triazol-4-yl)phenyl)-3-(isoquinolin-4-yl)quinazoline-2,4(1H,3H)-dione]	0.0172	0.0568		
Cc1nc2cncc(-n3c(=O)c4sc(-c5ccccc5C#N)cc4n(CCC#N)c3=O)c2n1C [Example 854]		> 1	0.0933	
COc1cc(-c2cc3[nH]c(=O)n(-c4cnccc4C)c(=O)c3s2)c(Cl)cc1F [Example 713]				IC50 ([1]; MPro IC50, recombinant SARS-CoV-2 Mpro 7.5 nM, fluorogenic peptide substrate 40 μM): 0.00918 µM; EC50 (SARS-CoV-2-NLuc; [5]): 0.015 µM
Cc1ccc2cncc(-n3c(=O)[nH]c4cc(-c5ccccc5Cl)ccc4c3=O)c2c1 [Example 109]	0.265	0.423		
COc1ccc(Cl)c(-c2cc3[nH]c(=O)n(-c4cncc5c(OC)cccc45)c(=O)c3s2)c1 [Example 627]		4.77	1.97	
Cn1ncc2cncc(-n3c(=O)c4sc(-c5ccc(F)cc5Cl)cc4n(CCC#N)c3=O)c21 (single isomer, unassigned) [Example 955, 3-(6-(2-chloro-4-fluorophenyl)-3-(1-methyl-1H-pyrazolo[4,3-c]pyridin-7-yl)-2,4-dioxo-3,4-dihydrothieno[3,2-d]pyrimidin-1(2H)-yl)propanenitrile]			0.00681	EC50 (SARS-CoV-2-NLuc; read-out: MPro EC50): 0.00967 µM
COc1cc(-c2cc3[nH]c(=O)n(-c4cncc5cccnc45)c(=O)c3s2)c(C#N)cc1F [Example 543]		0.24	0.00991	
COc1cc(-c2cc3c(s2)c(=O)n(-c2cncc4c2c(C)nn4CC(F)(F)F)c(=O)n3CCC#N)c(Cl)cc1F [Example 919]		0.366	0.926	
Cc1c(-c2ccccc2Cl)sc2c1c(=O)n(-c1cncc3ccccc13)c(=O)n2CC1CCCC1 [Example 64]	28.4			EC50 (SARS-CoV-2-NLuc; [5]): 3.14 µM
